According to patent EP2468279A1, “Prokineticin 1 receptor agonists and their uses” (Université de Strasbourg, priority 2010, dated 2012):

Experiments:
Format in all cases: cell-based
[1] = system: endothelial cells (H5V); experiment: Induction of in vitro angiogenesis: tube formation on Growth Factor Reduced Matrigel; details: serum free medium, 24h at 37°C, number of branching points, Figures 3 and 4
Protocol: Coronary endothelial cells (H5V cells) were maintained in DMEM supplemented with 10% heat inactivated Fetal Calf Serum (FCS), glutamine (1mM) under 5% CO2 at 37°C.
In order to evaluate the potential angiogenic activity of the PKR1 agonists, the test of Growth Factor Reduced Matrigel (GFR Matrigel) 24 well plate was performed. Matrigel leads to the differentiation of many cell types and induces the formation and organization of endothelial cells into capillary tubules. Twenty-four-well culture plates were coated with Matrigel and endothelial cells (H5V) were trypsin-harvested and seeded onto the coated plates at 10^5 cells per well in the serum free assay medium with PKR1 agonists, IS1 and prokineticin-2, and incubated at 37°C for 24h. Tube formation as two dimensional branched structures were observed using an inverted phase contrast microscope (Zeiss), and the number of branching points were quantified in per well from each sample. Each experiment was repeated at least three times. Images were captured at a magnification of X10 with a digital microscope camera system (Urayama K et al., 2007).

[2] = molecular target: T1, PKR1 (Homo sapiens, UniProt Q8TCW9); experiment: Activation of PKR1 signalling pathway: intracellular calcium measured with Fluo 4-AM in CHO-K1 cells infected with adenovirus carrying PKR1 cDNA; details: CHO-K1 cells expressing PKR1, Fluo 4-AM fluorescence; Figure 5
T1 construct: expressed in transfected cells; host or cells: CHO-K1 cells, transfected with Lipofectamine2000
Protocol: CHO-K1 (Chinese Hamster Ovary) cells were infected with a adenovirus carrying PKR1 cDNA. Cells were then stimulated, 48h after infection, with or without IS1 agonists, at 37°C. Calcium imaging was conducted essentially as previously described (Horinouchi et al., 2007) In brief, Intracellular free calcium [Ca^2+]i was measured with the fluorescent Ca^2+ indicator dye Fluo 4-AM, the membrane-permeant acetoxymethyl ester form of Fluo 4 (Invitrogen). Changes in [Ca^2+]i were determined from variations in the fluorescence intensity of Fluo 4-AM. Briefly, trypsinized CHO-K1-PKR1 cells were seeded onto glass bottom culture dishes (MatTek, MA, USA) for 24 h. […] The fluorescence in the cells was excited at a wavelength of 488 nm and a series of images (total exposure time: 300 s) were acquired at 0.5s intervals at emission wavelength 518 nm. Data are presented as the fluorescence intensity of 3 randomly chosen cells within a randomly selected 40 × field. To evaluate the effect of IS1 compound on [Ca^2+]i in CHO-K-PKR1, the maximum change in fluorescence intensity upon addition of IS1 was measured and normalized to the baseline fluorescence obtained before IS 1 addition.

[3] = molecular target: T1, PKR1; experiment: PKR1 internalization in CHO-K1 cells transfected with GFP-PKR1, by confocal microscopy; details: Figure 6
Protocol: The capacity of agonist compounds to induce internalization of PKR1 was assessed. Therefore, CHO-K1 cells transfected with a plasmid encoding GFP-PKR1 (Green Fluorescent Protein-PKR1), in the presence of Lipofectamine2000 (Invitrogen), were used. Cells were stimulated, 48h after transfection, with or without agonist compound, at 37°C. GFP is a fluorescent protein fusion (26.9 kDa) which has a major excitation peak at a wavelength of 396 nm and a minor one at 472 nm. Its emission peak is at 504 nm which is in the lower green portion of the visible spectrum. Fluorescence allowed tracking the localization of PKR1 after stimulation by the agonist (membrane or subcellular). Cells were seeded in glass-bottom coated with polyL-lysine and receptor studies were performed in the presence of various PKR1-ligands. Samples were observed under a Leica confocal microscope (SP2 AOBS MP) with objective 63× at 37°C. Images were automatically recorded during 20 min, with increasing time intervals to avoid bleaching effects because of repetitive scanning. Reconstituted videos contained 42 images and lasted 2 second.

T1 sequence (Q8TCW9 whole entry): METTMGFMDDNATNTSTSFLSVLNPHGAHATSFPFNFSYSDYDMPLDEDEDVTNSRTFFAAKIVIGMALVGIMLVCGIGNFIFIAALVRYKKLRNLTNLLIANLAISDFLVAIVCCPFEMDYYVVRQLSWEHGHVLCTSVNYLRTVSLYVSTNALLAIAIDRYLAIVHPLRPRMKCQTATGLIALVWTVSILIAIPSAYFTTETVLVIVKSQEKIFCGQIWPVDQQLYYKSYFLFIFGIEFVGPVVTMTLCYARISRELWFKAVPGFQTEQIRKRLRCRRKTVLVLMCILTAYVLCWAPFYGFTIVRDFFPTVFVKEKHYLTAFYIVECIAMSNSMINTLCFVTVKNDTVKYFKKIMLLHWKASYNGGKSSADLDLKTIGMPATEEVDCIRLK

PKR1 internalization ([3]; CHO cells GFP-PKR1, 48h after transfection, 37°C): induces its internalization
specificity of interaction with PKR1 ([3]; CHO cells GFP-PKR1): specifically interacts with PKR1
Compound: O=C(NCc1cccnc1)C(=Cc1ccco1)NC(=O)c1ccccc1 [IS1]
in vitro angiogenesis (tube-like formation of the endothelial cells on Matrigel) [1]: Induction of in vitro angiogenesis
activation of the PKR1 signalling pathway (intracellular calcium release) [2]: able to activate the PKR1 signalling pathway
